Source: US20110257139A1, “TREATMENT OF DIARRHOEA” (ROYAL COLLEGE OF SURGEONS IN IRELAND, priority 2008, published 2011)

What was measured:
[1] = test system: K^+ channel conductances; assay: Basolateral K^+ conductance in T84 monolayers (Ussing chambers); type: cell-based; conditions: 5 μM, 24 hrs
Procedure: To measure basolateral K^+ conductance T84 cell monolayers in Ussing chambers were apically permeabilized with amphotericin B (50 μmol/L). A K^+ gradient (123.2-5.2 mmol/L) was created across the basolateral membrane by addition of a high K^+ (123.2 mmol/L) Ringers solution, in which NaCl is substituted with K^+-gluconate, to the apical reservoir. Ouabain (100 μmol/L) was added basolaterally to inhibit Na^+/K^+-ATPase pump activity. Under these conditions changes in Isc are wholly reflective of changes in basolateral K^+ conductance (IK^+).

[2] = test system: T84 cells; assay: Cellular ATP levels in T84 cells (ENLITEN ATP Assay); type: cell-based; conditions: 5 μM, 24 hrs
Procedure: Cells were then lysed with hypotonic lysis buffer (2 mM EDTA, 100 mM Trizma base, brought to pH 7.75 with acetic acid) and frozen at −80° C. The lysate was later assayed for ATP content using the ENLITEN® ATP Assay System (Promega, Madison, Wis.).

[3] = test system: Na^+/K^+ ATPase pump; assay: Abundance (western blotting) and surface expression (biotinylation) of Na^+/K^+ ATPase pump in T84 cells; type: cell-based; conditions: 5 μM, 24 hrs
Procedure: Western Blotting: T84 monolayers were washed with ice-cold PBS and lysed (1% Nonidet P-40, 150 mmol/L NaCl, 50 mmol/L Tris Base, 1×Complete mini EDTA free protease inhibitor tablet, 0.1 mg/l mL PMSF, 1 mmol/L Na3VO4). Lysates were collected, centrifuged at 15,294×g for 10 minutes at 4° C., the pellet discarded, and the supernatant sonicated with 3×10 second pulses in order to disrupt membrane proteins. Samples were normalized for protein content and 2× gel loading buffer (50 mM Tris HCl, 100 mM DTT, 40% glycerol and 4% SDS) was added. Samples were then heated at 95° C. for 5 min, separated by sodium dodecyl sulphate polyacrylamide gel electrophoresis and transferred to PVDF membranes. Membranes were pre-blocked in 5% blocking buffer (Marvel in PBS) for 60 minutes at room temperature followed by incubation with primary antibody in 5% blocking buffer overnight at 4° C. […] After further washing (×4) in TBST, immunoreactive proteins were detected by enhanced chemiluminescence (Amersham Biosciences, UK).
Cell Surface Biotinylation: Following treatment T84 cell monolayers were washed ×3 in ice-cold PBS and freshly prepared biotinylation buffer (1 mg/mL sulfo-NHS-biotin (Pierce) in PBS) was added basolaterally. […] Na^+/K^+-ATPase □ subunit was detected by western blot analysis as described above.

[4] = test system: T84 cells; assay: Cl^− secretory (Isc) responses of T84 cell monolayers in Ussing chambers; type: cell-based; conditions: for Isc (Cl^− secretory) response to carbachol (CCh) / Isc (Cl^− secretory) response to forskolin: T84 monolayers pretreated with 1 μM for 24 hrs; for Isc (Cl^− secretory) response to carbachol (CCh): carbachol 100 μM; for Isc (Cl^− secretory) response to forskolin: forskolin 10 μM
Procedure: Measurements of chloride secretion: Cultured T84 epithelial cells were employed as a model of the colonic epithelium. T84 cells were grown as monolayers on filter supports. When grown in this way T84 cells retain many of the characteristics of native intestinal epithelium and are widely considered as being among the best reductionist models for analysing intestinal epithelial secretory responses. […] After this time they were washed of GW 4064, mounted in Ussing chambers, and voltage-clamped to zero potential difference. Under these conditions, transepithelial ion transport can be measured as changes in short-circuit current (Isc) and such changes in Isc across T84 cells have been established as being wholly due to Cl^− ion secretion. After mounting the cells in Ussing chambers we measured Cl^− secretory responses to both the calcium- and cAMP-dependent agonists, carbachol (100 μM) and forskolin (10 μM), respectively.

[5] = test system: mouse colon; assay: Ex vivo Isc measurements in muscle-stripped colon after intraperitoneal dosing of mice; conditions: 100 mg/kg intraperitoneally, 24 hrs
Procedure: Animal Studies: Male C57BL6 mice were bred and maintained in an environmentally controlled animal facility at Beaumont Hospital. Experiments were performed on 6-9 week old animals and were in compliance with Irish Department of Health and Children regulations and approved by the Beaumont Hospital Ethics Committee. […] The distal colon was removed, stripped of underlying smooth muscle, and mounted in Ussing chambers (window area=0.3 cm^2). Results were normalized and expressed as ΔIsc (μA/cm^2).
Administration of a potent and selective FXR agonist inhibits Cl^− secretory responses in mouse colon. FIG. 10.

[6] = test system: T84 cells; assay: Transepithelial conductance of T84 monolayers as a measure of cell viability; type: cell-based; conditions: various concentrations for 24 hrs
Procedure: Monolayers were then mounted in Ussing chambers and transepithelial conductance measurements were made as a measure of cell viability (n=4-13). Only at concentrations>10 μM did GW 4064 exert toxic effects on T84 cells. FIG. 5.

GW4064
K^+ channel conductances [1]: did not significantly alter | Cellular ATP levels [2]: does not alter | Cellular abundance of the catalytic α subunit of Na^+/K^+ ATPase (western blotting) [3]: does not alter | Surface expression of Na^+/K^+ ATPase pump (biotinylation) [3]: does not alter | CCh-induced Cl^− secretory responses ([4]; GW4064 5 μM, 24 hrs): inhibited | Isc (Cl^− secretory) response to carbachol (CCh) [4]: significantly attenuates | Isc (Cl^− secretory) response to carbachol (CCh) ([4]; listed as GW 4064): significantly reduce | Isc (Cl^− secretory) response to forskolin [4]: significantly attenuates | Isc (Cl^− secretory) response to forskolin ([4]; listed as GW 4064): significantly reduce | Time-dependence of attenuation of Cl^− secretory responses to CCh ([4]; pretreated 5 μM for various periods of time, CCh 100 μM): attenuates Cl^− secretion in a time-dependent fashion | Concentration-dependence of antisecretory actions (Cl^− secretory responses to CCh and forskolin) ([4]; pretreated 0.1-10 μM for 24 hrs): concentration-dependent | Ex vivo Isc response of colon to CCh [5]: significantly attenuated | Ex vivo Isc response of colon to forskolin [5]: significantly attenuated | Concentration exerting toxic effects on T84 cells (transepithelial conductance) [6]: > 10 µM
